Measured values: PubChem BioAssay AID1963830 (Molecular Pharmacology Branch, DTP, NCI, 2024)

System: 922993-354-T-J3-PDC complex spheroid viability
Assay: Anticancer human tumor 922993-354-T-J3-PDC patient-derived endometrial carcinoma cell line growth inhibition [POLQ]
Settings: for IC50: curve of first compound; for viability, T/C: stronger effect = lower value
Outline: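 PDC + HUVEC + MSC complex spheroids; POLQ inhibitors ± partner drugs; top conc. at/near clinical Cmax, else 10 microM (SN-38 1 microM), half-log dilutions; 37 degrees C, 5% CO2.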

[1] = second compound 0.0316 µM, first compound 0.0316 µM
[2] = second compound 0.0316 µM, first compound 0.1 µM
[3] = second compound 0.0316 µM, first compound 0.316 µM
[4] = second compound 0.0316 µM, first compound 1 µM
[5] = second compound 0.0316 µM, first compound 3.16 µM
[6] = second compound 0.0316 µM, first compound 10 µM
[7] = second compound 0.1 µM, first compound 0.0316 µM
[8] = second compound 0.1 µM, first compound 0.1 µM
[9] = second compound 0.1 µM, first compound 0.316 µM
[10] = second compound 0.1 µM, first compound 1 µM
[11] = second compound 0.1 µM, first compound 3.16 µM
[12] = second compound 0.1 µM, first compound 10 µM
[13] = second compound 0.316 µM, first compound 0.0316 µM
[14] = second compound 0.316 µM, first compound 0.1 µM
[15] = second compound 0.316 µM, first compound 0.316 µM
[16] = second compound 0.316 µM, first compound 1 µM
[17] = second compound 0.316 µM, first compound 3.16 µM
[18] = second compound 0.316 µM, first compound 10 µM
[19] = second compound 1 µM, first compound 0.0316 µM
[20] = second compound 1 µM, first compound 0.1 µM
[21] = second compound 1 µM, first compound 0.316 µM
[22] = second compound 1 µM, first compound 1 µM
[23] = second compound 1 µM, first compound 3.16 µM
[24] = second compound 1 µM, first compound 10 µM
[25] = second compound 3.16 µM, first compound 0.0316 µM
[26] = second compound 3.16 µM, first compound 0.1 µM
[27] = second compound 3.16 µM, first compound 0.316 µM
[28] = second compound 3.16 µM, first compound 1 µM
[29] = second compound 3.16 µM, first compound 3.16 µM
[30] = second compound 3.16 µM, first compound 10 µM
[31] = second compound 10 µM, first compound 0.0316 µM
[32] = second compound 10 µM, first compound 0.1 µM
[33] = second compound 10 µM, first compound 0.316 µM
[34] = second compound 10 µM, first compound 1 µM
[35] = second compound 10 µM, first compound 3.16 µM
[36] = second compound 10 µM, first compound 10 µM
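Further: spheroids exposed to the agents for one week.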
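Wherever viability, T/C is given: 100% = DMSO vehicle control wells.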

## COc1cc(C2c3cc4c(cc3C(OC3OC5COC(C)OC5C(O)C3O)C3COC(=O)C23)OCO4)cc(OC)c1O (stereo unspecified) + Nc1ccc(C#CCN(C(=O)Cc2ncc(C(F)(F)F)cc2C(F)(F)F)c2ccc(F)cc2)nn1
Second compound 0.0316 µM
  IC50: > 10 µM
Second compound 0.1 µM
  IC50: > 10 µM
Second compound 0.316 µM
  IC50: > 10 µM
Second compound 1 µM
  IC50: > 10 µM
Second compound 3.16 µM
  IC50: > 10 µM
Second compound 10 µM
  IC50: 4.39 µM
[1]
  viability, T/C: 108%
[2]
  viability, T/C: 106%
[3]
  viability, T/C: 101%
[4]
  viability, T/C: 105%
[5]
  viability, T/C: 90.9%
[6]
  viability, T/C: 81%
[7]
  viability, T/C: 103%
[8]
  viability, T/C: 102%
[9]
  viability, T/C: 104%
[10]
  viability, T/C: 98.2%
[11]
  viability, T/C: 97.4%
[12]
  viability, T/C: 71.4%
[13]
  viability, T/C: 101%
[14]
  viability, T/C: 105%
[15]
  viability, T/C: 100%
[16]
  viability, T/C: 104%
[17]
  viability, T/C: 94.2%
[18]
  viability, T/C: 76%
[19]
  viability, T/C: 105%
[20]
  viability, T/C: 103%
[21]
  viability, T/C: 103%
[22]
  viability, T/C: 100%
[23]
  viability, T/C: 96.1%
[24]
  viability, T/C: 77%
[25]
  viability, T/C: 103%
[26]
  viability, T/C: 97.2%
[27]
  viability, T/C: 98%
[28]
  viability, T/C: 95.6%
[29]
  viability, T/C: 88%
[30]
  viability, T/C: 67.6%
[31]
  viability, T/C: 100%
[32]
  viability, T/C: 90.5%
[33]
  viability, T/C: 91.2%
[34]
  viability, T/C: 75.1%
[35]
  viability, T/C: 62.2%
[36]
  viability, T/C: 25.3%

## Nc1ccn(C2OC(CO)C(O)C2(F)F)c(=O)n1 (stereo unspecified) + Nc1ccc(C#CCN(C(=O)Cc2ncc(C(F)(F)F)cc2C(F)(F)F)c2ccc(F)cc2)nn1
Second compound 0.0316 µM
  IC50: < 0.0316 µM
Second compound 0.1 µM
  IC50: < 0.0316 µM
Second compound 0.316 µM
  IC50: < 0.0316 µM
Second compound 1 µM
  IC50: < 0.0316 µM
Second compound 3.16 µM
  IC50: < 0.0316 µM
Second compound 10 µM
  IC50: < 0.0316 µM
[1]
  viability, T/C: 25.5%
[2]
  viability, T/C: 25%
[3]
  viability, T/C: 20.9%
[4]
  viability, T/C: 22.2%
[5]
  viability, T/C: 22.2%
[6]
  viability, T/C: 17.2%
[7]
  viability, T/C: 25.9%
[8]
  viability, T/C: 25.5%
[9]
  viability, T/C: 18.4%
[10]
  viability, T/C: 21.9%
[11]
  viability, T/C: 21.3%
[12]
  viability, T/C: 19.4%
[13]
  viability, T/C: 24.9%
[14]
  viability, T/C: 24%
[15]
  viability, T/C: 22.1%
[16]
  viability, T/C: 20.1%
[17]
  viability, T/C: 22.4%
[18]
  viability, T/C: 20.5%
[19]
  viability, T/C: 23.1%
[20]
  viability, T/C: 19.1%
[21]
  viability, T/C: 22.7%
[22]
  viability, T/C: 21.8%
[23]
  viability, T/C: 21.3%
[24]
  viability, T/C: 23.3%
[25]
  viability, T/C: 23.4%
[26]
  viability, T/C: 18.7%
[27]
  viability, T/C: 19.1%
[28]
  viability, T/C: 20.4%
[29]
  viability, T/C: 21.1%
[30]
  viability, T/C: 20.8%
[31]
  viability, T/C: 23.2%
[32]
  viability, T/C: 18.9%
[33]
  viability, T/C: 21.9%
[34]
  viability, T/C: 18.4%
[35]
  viability, T/C: 20.1%
[36]
  viability, T/C: 17.5%

## O=c1[nH]cc(F)c(=O)[nH]1 + Nc1ccc(C#CCN(C(=O)Cc2ncc(C(F)(F)F)cc2C(F)(F)F)c2ccc(F)cc2)nn1
Second compound 0.0316 µM
  IC50: 5.83 µM
Second compound 0.1 µM
  IC50: 5.94 µM
Second compound 0.316 µM
  IC50: 5.66 µM
Second compound 1 µM
  IC50: 5.75 µM
Second compound 3.16 µM
  IC50: 5.48 µM
Second compound 10 µM
  IC50: 5.32 µM
[1]
  viability, T/C: 103%
[2]
  viability, T/C: 105%
[3]
  viability, T/C: 105%
[4]
  viability, T/C: 103%
[5]
  viability, T/C: 79.9%
[6]
  viability, T/C: 23.6%
[7]
  viability, T/C: 106%
[8]
  viability, T/C: 103%
[9]
  viability, T/C: 104%
[10]
  viability, T/C: 102%
[11]
  viability, T/C: 80.7%
[12]
  viability, T/C: 24.6%
[13]
  viability, T/C: 104%
[14]
  viability, T/C: 104%
[15]
  viability, T/C: 104%
[16]
  viability, T/C: 99.6%
[17]
  viability, T/C: 76.8%
[18]
  viability, T/C: 23.8%
[19]
  viability, T/C: 103%
[20]
  viability, T/C: 98.5%
[21]
  viability, T/C: 103%
[22]
  viability, T/C: 102%
[23]
  viability, T/C: 82.4%
[24]
  viability, T/C: 19.8%
[25]
  viability, T/C: 99.8%
[26]
  viability, T/C: 103%
[27]
  viability, T/C: 100%
[28]
  viability, T/C: 102%
[29]
  viability, T/C: 75.7%
[30]
  viability, T/C: 21.9%
[31]
  viability, T/C: 98.6%
[32]
  viability, T/C: 101%
[33]
  viability, T/C: 100%
[34]
  viability, T/C: 96.6%
[35]
  viability, T/C: 77.4%
[36]
  viability, T/C: 17.3%
